Results on two compounds are retold here after PubChem BioAssay (NCI).

Some test systems named below: MDA-N; DMS 114 small cell lung; HOP-18 NSCLC; DMS 273 small cell lung; KM20L2 colon; XF 498 CNS; P388/ADR leukemia; SNB-78 CNS; RXF-631 renal; SN12K1 renal; DLD-1 colon.
Holding throughout (experiment): NCI tumour cell line growth inhibition, 48 h

Molecules are shown by their SMILES. Values joined by “and” are separate entries in the source; they are usually repeats but may differ in a detail not shown here. Equal entries are not always repeated.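 Values below derive from 48-hour exposures of cells grown in 96-well plates, with endpoints linearly interpolated between the two concentrations bracketing the appropriate inhibition level. GI50: concentration for 50% inhibition of growth. TGI: concentration producing complete growth inhibition.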

For `COC1=C2C[C@@H](C)C[C@@H](OC)[C@@H](O)[C@H](C)/C=C(\C)[C@@H](OC(N)=O)[C@H](OC)/C=C\C=C(/C)C(=O)NC(=CC1=O)C2=O`, the GI50 in the test on MDA-N is 0.00577 µM; with HOP-18 NSCLC, 0.0288 µM; in the test with KM20L2 colon it was less than 0.0347 µM; in the test with XF 498 CNS it was 0.0356 µM; in the test on SNB-78 CNS, 0.859 µM; in the test on DLD-1 colon, 0.131 µM. In addition, the TGI in the test with MDA-N is 8.51 µM; with DMS 114 small cell lung, 2.14 µM; with HOP-18 NSCLC it was 4.92 µM and 1.28 µM; in the test with DMS 273 small cell lung, 2.05 µM; in the test on KM20L2 colon it was 0.99 µM and 0.886 µM; in the test on XF 498 CNS, 1.13 µM and 0.853 µM. The TGI in the test on P388/ADR leukemia is 1.47 µM; in the test with SNB-78 CNS, 11.7 µM and 7.42 µM; with RXF-631 renal, 3.35 µM; with SN12K1 renal it was 2.51 µM; in the test on DLD-1 colon it was 9.63 µM and 3.15 µM.

As for `OCC1OC(n2cnc3c2NC=NC[C@H]3O)CC1O` (stereo not given in full), the TGI was more than 500 µM in the test with MDA-N; 455 µM and > 588 µM in the test with DMS 114 small cell lung; 308 µM and > 588 µM in the test on HOP-18 NSCLC; 500 µM and > 588 µM in the test with DMS 273 small cell lung; more than 588 µM with KM20L2 colon; 498 µM with XF 498 CNS. Moreover, the TGI is 448 µM with P388/ADR leukemia; 500 µM and > 588 µM with SNB-78 CNS; 500 µM and > 588 µM in the test on RXF-631 renal; 467 µM in the test with SN12K1 renal; 500 µM and > 588 µM in the test with DLD-1 colon. The GI50 in the test with DMS 114 small cell lung was more than 588 µM; in the test with HOP-18 NSCLC, 284 µM and > 588 µM; with DMS 273 small cell lung, more than 588 µM; in the test with KM20L2 colon, more than 588 µM; in the test with SNB-78 CNS, more than 588 µM; in the test on RXF-631 renal, 158 µM and > 588 µM. For the same compound, in the test with DLD-1 colon, the GI50 was more than 588 µM.
